Values joined by “and” are separate entries in the source; they are usually repeats but may differ in a detail not shown here. Equal entries are not always repeated.
Tests used:
[1] = test system: malignant glioma stem-like cells; test: HIF1-α and VEGF levels in malignant glioma stem-like cells; type: cell-based
20S Proteasome = test: 20S proteasome activity (% inhibition) in rodent brain; type: in vivo, mouse; parameters: 20S Proteasome Activity (% Inhibition), Blood, Trough / 20S Proteasome Activity (% Inhibition), Blood, Peak (2 hr) / 20S Proteasome Activity (% Inhibition), Tumor, Trough / 20S Proteasome Activity (% Inhibition), Tumor, Peak (2 hr): concentration or dose not given beside the values; settings: tumor-bearing mouse, IV; individual mice 1 and 2; listed as BTZ
[2] = Phase 1b MRZ + TMZ (+RT) in newly diagnosed G4 MG: adverse events, DLT; type: in vivo, human
Protocol: This is a Phase 1b, open-label, 3+3, dose-escalation followed by dose-expansion study in patients with newly diagnosed G4 MG who have not previously received any local or systemic therapy for their G4 MG. The study will examine the effect of the addition of MRZ to standard of care treatment utilizing two study arms: Concomitant Treatment in which MRZ will be combined with TMZ+RT and Adjuvant Treatment in which MRZ will be combined with TMZ. The study will be conducted in two Stages. In Stage 1 (Dose-Escalation): 3 to 6 evaluable patients per MRZ dose cohort will be enrolled in each study arm. […] A total of approximately 48 patients will be enrolled in Stages 1 and 2 combined. Patients may not be enrolled in more than 1 MRZ dose cohort per arm.
Concomitant Treatment consists of a 6 week (42 day) treatment period, followed by a 4 (−1) week break from treatments. All patients will receive intravenous (IV) MRZ infusion on Days 1, 8, 15, 29, and 36 as a 10 minute infusion. IV hydration will be given prior to the infusion. Focal RT will be administered once daily, 5 days/week, for 30 doses over 6 weeks to a total dose of 60 Gy, starting on Day 1. TMZ will be administered once daily, 7 days/week, for 6 weeks, starting on Day 1, at a dose of 75 mg/m^2. Patients who complete Concomitant Treatment may continue on to Adjuvant Treatment.
All patients will receive IV MRZ infusion on Days 1, 8, and 15 as a 10 minute infusion, in 28-day cycles. IV hydration will be given prior to the infusion. TMZ will be administered daily for 5 consecutive days, starting on Day 1 of Cycle 1 (C1D1), at a dose of 150 mg/m^2. If tolerated in Cycle 1, the TMZ dose will be increased on Day 1 of Cycle 2 (C2D1) to a dose of 200 mg/m^2.

[3] = patient 301-C202, action taken None

CC(C)C[C@H](NC(=O)[C@H](Cc1ccccc1)NC(=O)c1cnccn1)B(O)O [bortezomib, reference compound]
HIF1-α and VEGF levels [1]: induces HIF1-α and VEGF levels
20S Proteasome Activity (% Inhibition), Blood, Peak (2 hr) (20S Proteasome): 81% and 83%
20S Proteasome Activity (% Inhibition), Blood, Trough (20S Proteasome): 18% and 13%
20S Proteasome Activity (% Inhibition), Tumor, Peak (2 hr) (20S Proteasome): 83% and 93%
20S Proteasome Activity (% Inhibition), Tumor, Trough (20S Proteasome): 64% and 41%

Cn1nnc2c(C(N)=O)ncn2c1=O [temozolomide, reference compound]
Abdominal pain, Grade ≥3 TEAE, drug related ([2]; human, in vivo): 0 (0.0%)
Confusional state, treatment-related TEAE, number of patients ([2]; human, in vivo): 0
Confusional state, treatment-related TEAE, percent of patients ([2]; human, in vivo): (0.0%)
Constipation, treatment-related TEAE, number of patients ([2]; human, in vivo): 3
Constipation, treatment-related TEAE, percent of patients ([2]; human, in vivo): (15.0%)
Decreased appetite, treatment-related TEAE, number of patients ([2]; human, in vivo): 4
Decreased appetite, treatment-related TEAE, percent of patients ([2]; human, in vivo): (20.0%)
Dehydration, Grade ≥3 TEAE, drug related ([2]; human, in vivo): 0 (0.0%)
Diarrhoea, treatment-related TEAE, number of patients ([2]; human, in vivo): 2
Diarrhoea, treatment-related TEAE, percent of patients ([2]; human, in vivo): (10.0%)
Dizziness, treatment-related TEAE, number of patients ([2]; human, in vivo): 2
Dizziness, treatment-related TEAE, percent of patients ([2]; human, in vivo): (10.0%)
Dose reduction, reason Adverse Event ([2]; human, in vivo): 1 (5.0%)
Fatigue, Grade ≥3 TEAE, drug related ([2]; human, in vivo): 1 (5.0%)
Fatigue, treatment-related TEAE, number of patients ([2]; human, in vivo): 11
Fatigue, treatment-related TEAE, percent of patients ([2]; human, in vivo): (55.0%)
Hallucination, Grade ≥3 TEAE, drug related ([2]; human, in vivo): 0 (0.0%)
Hallucination, treatment-related TEAE, number of patients ([2]; human, in vivo): 0
Hallucination, treatment-related TEAE, percent of patients ([2]; human, in vivo): (0.0%)
Headache, Grade ≥3 TEAE, drug related ([2]; human, in vivo): 0 (0.0%)
Headache, treatment-related TEAE, number of patients ([2]; human, in vivo): 0
Headache, treatment-related TEAE, percent of patients ([2]; human, in vivo): (0.0%)
Insomnia, Grade ≥3 TEAE, drug related ([2]; human, in vivo): 0 (0.0%)
Muscular weakness, treatment-related TEAE, number of patients ([2]; human, in vivo): 0
Muscular weakness, treatment-related TEAE, percent of patients ([2]; human, in vivo): (0.0%)
Musculoskeletal pain, Grade ≥3 TEAE, drug related ([2]; human, in vivo): 0 (0.0%)
Nausea, treatment-related TEAE, number of patients ([2]; human, in vivo): 9
Nausea, treatment-related TEAE, percent of patients ([2]; human, in vivo): (45.0%)
Number of Patients with drug Discontinued ([2]; human, in vivo): 0
Number of Patients with ≥1 Dose Reduction ([2]; human, in vivo): 1 (5.0%)
Ovarian cyst, Grade ≥3 TEAE, drug related ([2]; human, in vivo): 0 (0.0%)
Pelvic infection, Grade ≥3 TEAE, drug related ([2]; human, in vivo): 0 (0.0%)
Platelet count decreased, Grade ≥3 TEAE, drug related ([2]; human, in vivo): 1 (5.0%)
Platelet count decreased, treatment-related TEAE, number of patients ([2]; human, in vivo): 3
Platelet count decreased, treatment-related TEAE, percent of patients ([2]; human, in vivo): (15.0%)
Rash maculo-papular, treatment-related TEAE, number of patients ([2]; human, in vivo): 3
Rash maculo-papular, treatment-related TEAE, percent of patients ([2]; human, in vivo): (15.0%)
Vomiting, Grade ≥3 TEAE, drug related ([2]; human, in vivo): 0 (0.0%)
Vomiting, treatment-related TEAE, number of patients ([2]; human, in vivo): 7
Vomiting, treatment-related TEAE, percent of patients ([2]; human, in vivo): (35.0%)
SAE Dehydration, relationship to drug ([2]; in vivo): Not Suspected/
SAE Fatigue, relationship to drug ([2]; in vivo): Not Suspected/
SAE Hallucination, relationship to drug ([2]; in vivo): Not Suspected/
SAE Nausea, relationship to drug ([2]; in vivo): Not Suspected/
SAE Vomiting, relationship to drug ([2]; in vivo): Not Suspected/
SAE Nephrolithiasis, relationship to drug ([2]; patient 104-C302, action taken None): Not Suspected/
SAE Confusional state, relationship to drug ([2]; patient 301-A202, action taken None): Not Suspected/
SAE Ovarian cyst, relationship to drug ([2]; patient 301-C202, action taken Dose Delayed): Not Suspected/
SAE Convulsion, relationship to drug [2, 3]: Not Suspected/
SAE Pelvic infection, relationship to drug [2, 3]: Not Suspected/

— patent US10894036B2, “Use of marizomib for the treatment of central nervous system (CNS) cancers” (Celgene International II Sàrl, priority 2016, dated 2021)
